Measured values: US6956047B1, “Corticotropin releasing factor antagonists” (Pfizer Inc., priority 1995, dated 2005)
Where a name gives a salt, the structure may show the parent alone.

Structure (SMILES) | melting point [°C]
CCN(CC)c1cc(C)nc(Oc2c(C)cc(C)cc2C)c1C (as salt: HCl) [Example 73, [3,6-dimethyl-2-(2,4,6-trimethyl-phenoxy)-pyridin-4-yl]-diethyl-amine] | 180 to 181
CCOC(=S)SCc1c(OC(CC)CC)cc(C)nc1Nc1c(C)cc(C)cc1C [Example 190, Dithiocarbonic acid O-ethyl ester S-[4-(1-ethyl-propoxy)-6-methyl-2-(2,4,6-trimethyl-phenylamino)-pyridin-3-ylmethyl] ester] | 55 to 57
CCC(COC)Nc1cc(C)nc(Oc2c(OC)cc(OC)cc2OC)c1[N+](=O)[O-] (stereo not drawn) [Example 114, (1-Methoxymethyl-propyl)-[6-methyl-3-nitro-2-(2,4,6-trimethoxy-phenoxy)-pyridin-4-yl]-amine] | 126.8 to 129.5
CCC(O)C(CC)Nc1cc(C)nc(Oc2c(C)cc(Cl)cc2C)c1CO (stereo not drawn) [Example 139, 4-[2-(4-Chloro-2,6-dimethyl-phenoxy)-3-hydroxymethyl-6-methyl-pyridin-4-ylamino]-hexan-3-ol] | 145 to 148
CCC(CC)Oc1cc(C)nc(Nc2c(C)cc(C)cc2C)c1NC(=O)CCl [Example 237, 2-Chloro-N-[4-(1-ethyl-propoxy)-6-methyl-2-(2,4,6-trimethyl-phenylamino)-pyridin-3-yl]-acetamide] | 79 to 82
CCC(CC)Oc1nc(C)nc(Nc2c(C)cc(C)cc2C)c1C(N)=O [Example 233, 4-(1-Ethyl-propoxy)-2-methyl-6-(2,4,6-trimethyl-phenylamino)-pyrimidine-5-carboxylic acid amide] | 174 to 176
CCC(CC)Oc1cc(C)nc(Nc2c(C)cc(C)cc2C)c1CN(C)C.Cl | 85 to 88
CCC(CC)Oc1cc(C)nc(Nc2c(C)cc(C)cc2C)c1CNC(=O)CCl [Example 188, 2-Chloro-N-[4-(1-ethyl-propoxy)-6-methyl-2-(2,4,6-trimethyl-phenylamino)-pyridin-3-ylmethyl]-acetamide] | 142 to 144
CCC(CC)Nc1cc(C)nc(Sc2c(C)cc(C)cc2C)c1C [Example 69, [3,6-Dimethyl-2-(2,4,6-trimethyl-phenylsulfanyl)-pyridin-4-yl]-(1-ethyl-propyl)-amine] | 108 to 110
CCC(CC)Oc1cc(C)nc(Oc2c(C)cc(C)cc2C)c1[N+](=O)[O-] [Example 173, 4-(1-Ethyl-propoxy)-6-methyl-3-nitro-2-(2,4,6-trimethyl-phenoxy)-pyridine] | 106 to 109
CCC(CC)Nc1cc(C)nc2c1nc(C)n2-c1c(C)cc(C)cc1C [Example 282, [2,5-Dimethyl-3-(2,4,6-trimethyl-phenyl)-3H-imidazo[4,5-b]pyridin-7-yl]-(1-ethyl-propyl)-amine] | 101 to 103
CCC(CC)Oc1cc(C)nc(Nc2c(C)cc(C)cc2C)c1 [Example 203, [4-(1-Ethyl-propoxy)-6-methyl-pyridin-2-yl]-(2,4,6-trimethyl-phenyl)-amine] | 98 to 100
CCN(CC)c1cc(C)nc(Oc2c(C)cc(Cl)cc2C)c1C (as salt: HCl) [Example 78, [2-(4-chloro-2,6-dimethyl-phenoxy)-3,6-dimethyl-pyridin-4-yl]-diethyl-amine] | 184 to 185
CCC(CC)Oc1cc(C)nc(Oc2c(C)cc(COC)cc2C)c1C [Example 67, 4-(1-Ethyl-propoxy)-2-(4-methoxymethyl-2,6-dimethyl-phenoxy)-3,6-dimethyl-pyridine] | 58 to 60
C#CC(CC)Nc1cc(C)nc(Oc2c(C)cc(C)cc2C)c1C(=O)O (stereo not drawn) [Example 140, 4-(1-Ethyl-prop-2-ynylamino)-6-methyl-2-(2,4,6-trimethyl-phenoxy)-nicotinic acid] | 131 to 133
CCC(CC)Oc1cc(C)nc(Nc2c(C)cc(C)cc2C)c1CC(C(=O)OC)C(=O)OC [Example 185, 2-[4-(1-Ethyl-propoxy)-6-methyl-2-(2,4,6-trimethyl-phenylamino)-pyridin-3-ylmethyl]-malonic acid dimethyl ester] | 96 to 98
CCC(CC)Oc1nc(C)nc(Oc2c(C)cc(C)cc2C)c1C#N [Example 35, 4-(1-Ethyl-propoxy)-2-methyl-6-(2,4,6-trimethyl-phenoxy)-pyrimidine-5-carbonitrile] | 128 to 130
CCC(COC)Nc1cc(C)nc(Oc2c(C=O)cccc2OC)c1[N+](=O)[O-] (stereo not drawn) [Example 114, 3-Methoxy-2-[4-(1-methoxymethyl-propylamino)-6-methyl-3-nitro-pyridin-2-yloxy]-benzaldehyde] | 126.5 to 130.5

Structure (SMILES) | melting point [°C]
CCC(CC)Oc1cc(C)nc(Nc2c(C)cc(C)cc2C)c1C(=O)N(C)C (as salt: HCl) [Example 193, 4-(1-Ethyl-propoxy)-6,N,N-trimethyl-2-(2,4,6-trimethyl-phenylamino)-nicotinamide] | 197 to 200
CCCN(CC)c1cc(C)nc(Oc2c(C)cc(C)cc2C)c1C (as salt: HCl) [Example 72, [3,6-Dimethyl-2-(2,4,6-trimethyl-phenoxy)-pyridin-4-yl]-ethyl-propyl-amine] | 167 to 169
CCC(Nc1cc(C)nc(Oc2c(C)cc(Cl)cc2C)c1CO)C(C)O (stereo not drawn) [Example 138, 3-[2-(4-Chloro-2,6-dimethyl-phenoxy)-3-hydroxymethyl-6-methyl-pyridin-4-ylamino]-pentan-2-ol] | 180 to 182
CCC(CC)Nc1cc(C)nc(Nc2c(C)cc(C)cc2C)c1C(N)=O [Example 232, 4-(1-Ethyl-propylamino)-6-methyl-2-(2,4,6-trimethyl-phenylamino)-nicotinamide] | 204 to 206
CCC(CC)Oc1cc(C)nc2c1[nH]c(=O)n2-c1c(C)cc(C)cc1C [Example 279, 7-(1-Ethyl-propoxy)-5-methyl-3-(2,4,6-trimethyl-phenyl)-1,3-dihydro-imidazo[4,5-b]pyridin-2-one] | 184 to 186
CCC(CC)Nc1cc(C)nc(Oc2c(C)cc(C)cc2C)c1CN [Example 248, [3-Aminomethyl-6-methyl-2-(2,4,6-trimethyl-phenoxy)-pyridin-4-yl]-(1-ethyl-propyl)-amine] | 117 to 119
CCC(CC)Oc1cc(C)nc(Nc2c(C)cc(C)cc2C)c1C(=O)n1ccnc1 [Example 183, [4-(1-Ethyl-propoxy)-6-methyl-2-(2,4,6-trimethyl-phenylamino)-pyridin-3-yl]-imidazol-1-yl-methanone] | 120 to 122
CCCCN(CC)c1cc(C)nc(Oc2c(C)cc(Cl)cc2C)c1C (as salt: HCl) [Example 76, Butyl-[2-(4-chloro-2,6-dimethyl-phenoxy)-3,6-dimethyl-pyridin-4-yl]-ethyl-amine] | 177 to 178
CCC(CC)Nc1cc(C)nc2c1nc(N)n2-c1c(C)cc(C)cc1C [Example 283, N7-(1-Ethyl-propyl)-5-methyl-3-(2,4,6-trimethyl-phenyl)-3H-imidazo[4,5-b]pyridine-2,7-diamine] | 158 to 160
CCC(CC)Oc1cc(C)nc2c1n(C)c(=O)n2-c1c(C)cc(C)cc1C [Example 280, 7-(1-Ethyl-propoxy)-1,5-dimethyl-3-(2,4,6-trimethyl-phenyl)-1,3-dihydro-imidazo[4,5-b]pyridin-2-one] | 151 to 153
CCNc1cc(C)nc(Sc2c(C)cc(C)cc2C)c1C [Example 71, [3,6-dimethyl-2-(2,4,6-trimethyl-phenylsulfanyl)-pyridin-4-yl]-ethyl-amine] | 114 to 116
CCN(C)c1cc(C)nc(Oc2c(C)cc(C)cc2C)c1C (as salt: HCl) [Example 74, [3,6-Dimethyl-2-(2,4,6-trimethyl-phenoxy)-pyridin-4-yl]-ethyl-methyl-amine] | 173 to 174
CCCN(CC)c1cc(C)nc(Oc2c(C)cc(Cl)cc2C)c1C (as salt: HCl) [Example 77, [2-(4-chloro-2,6-dimethyl-phenoxy)-3,6-dimethyl-pyridin-4-yl]-ethyl-propyl-amine] | 74 to 76
CCC(CC)Oc1nc(C)nc(Nc2c(C)cc(C)cc2C)c1C(=O)O [Example 273, 4-(1-Ethyl-propoxy)-2-methyl-6-(2,4,6-trimethyl-phenylamino)-pyrimidine-5-carboxylic acid] | 118 to 120
CCC(CC)Nc1cc(C)nc(Oc2c(C)cc(Cl)cc2C)c1N [Example 97, 2-(4-Chloro-2,6-dimethyl-phenoxy)-N4-(1-ethyl-propyl)-6-methyl-pyridine-3,4-diamine] | 72 to 74
Cc1cc(C)c(Oc2nc(C)cc(C(O)C(F)(F)F)c2C)c(C)c1 (stereo not drawn) [Example 212, 1-[3,6-Dimethyl-2-(2,4,6-trimethyl-phenoxy)-pyridin-4-yl]-2,2,2-trifluoro-ethanol] | 134 to 139
CCC(CC)Nc1cc(C)nc(Oc2c(C)cc(C)cc2C)c1NC(C)=O [Example 98, N-[4-(1-Ethyl-propylamino)-6-methyl-2-(2,4,6-trimethyl-phenoxy)-pyridin-3-yl]-acetamide] | 154 to 156
CCC(CC)Oc1nc(C)nc(Nc2c(C)cc(C)cc2C)c1CO [Example 274, [4-(1-Ethyl-propoxy)-2-methyl-6-(2,4,6-trimethyl-phenylamino)-pyrimidin-5-yl]-methanol] | 121 to 123
